This experiment deals with HBV. As to the kind of experiment: HBV replication inhibition assay (BDNA assay) in HepG2.2.15 cells. The note with it: Hepatitis B virus, HepG2.2.15, 144 h, read-out: HepG2.2.15 EC50 HBV DNA. Type of experiment: cell-based. The procedure: HBV replication inhibition by the disclosed compounds were determined in cells infected or transfected with HBV or cells with stably integrated HBV, such as HepG2.2.15 cells (Sells et al. 1987). In this example, HepG2.2.15 cells were maintained in cell culture medium containing 10% fetal bovine serum (FBS), Geneticin, L-glutamine, penicillin and streptomycin. HepG2.2.15 cells were seeded in 96-well plates at a density of 40,000 cells/well and were treated with serially diluted compounds at a final DMSO concentration of 0.5% either alone or in combination by adding drugs in a checker box format. Cells were incubated with compounds for three days, after which medium was removed and fresh medium containing compounds was added to cells and incubated for another three days. At day 6, supernatant was removed and treated with DNase at 37° C. for 60 minutes, followed by enzyme inactivation at 75° C. for 15 minutes. Encapsidated HBV DNA was released from the virions and covalently linked HBV polymerase by incubating in lysis buffer (Affymetrix QS0010) containing 2.5 μg proteinase K at 50° C. for 40 minutes. HBV DNA was denatured by addition of 0.2 M NaOH and detected using a branched DNA (BDNA) QuantiGene assay kit according to manufacturer recommendation (Affymetrix). HBV DNA levels were also quantified using qPCR, based on amplification of encapsidated HBV DNA extraction with QuickExtraction Solution (Epicentre Biotechnologies) and amplification of HBV DNA using HBV specific PCR probes that can hybridize to HBV DNA and a fluorescently labeled probe for quantitation. In addition, cell viability of HepG2.2.15 cells incubated with test compounds alone or in combination was determined by using CellTitre-Glo reagent according to the manufacturer protocol (Promega). The mean background signal from wells containing only culture medium was subtracted from all other samples, and percent inhibition at each compound concentration was calculated by normalizing to signals from HepG2.2.15 cells treated with 0.5% DMSO using equation E1.
% inhibition=(DMSOave−Xi)/DMSOave×100% E1
where DMSOave is the mean signal calculated from the wells that were treated with DMSO control (0% inhibition control) and Xi is the signal measured from the individual wells. EC50 values, effective concentrations that achieved 50% inhibitory effect, were determined by non-linear fitting using Graphpad Prism software (San Diego, Calif.) and equation E2.
Y=Ymin+(Ymax−Ymin)/(1+10(Log EC50−X)×HillSlope) E2
where Y represents percent inhibition values and X represents the logarithm of compound concentrations.
Selected disclosed compounds were assayed in the HBV replication assay (BDNA assay), as described above, and a representative group of these active compounds is shown in Table 3.

[1] abbreviates: HepG2.2.15 cells, BDNA assay, encapsidated HBV DNA in supernatant at day 6.

Molecules are shown by their SMILES. Read-outs that look alike come from different tables or passages of the source.

Regarding `N#Cc1cc(NC(=O)N2CCc3nn4c(c3C2)C(F)(F)CC[C@H](O)C4)ccc1F` [Example 3, (S)-N-(3-Cyano-4-fluorophenyl)-11,11-difluoro-8-hydroxy-3,4,8,9,10,11-hexahydro-1H-pyrido[4′,3′:3,4]pyrazolo[1,5-a]azepine-2(7H)-carboxamide], the EC50 (usually the concentration needed to bring the measured effect to its halfway point) under setting [1] worked out at 22 nM.
Still for that read-out and setting: in the case of `O=C(Nc1ccc(F)c(C(F)(F)F)c1)N1CCc2nn3c(c2C1)C(F)(F)CC[C@H](O)C3` [Example 4, (S)-11,11-Difluoro-N-(4-fluoro-3-(trifluoromethyl)phenyl)-8-hydroxy-3,4,8,9,10,11-hexahydro-1H-pyrido[4′,3′:3,4]pyrazolo[1,5-a]azepine-2(7H)-carboxamide] it was 37 nM; in that of `O=C(Nc1ccnc(Br)c1F)N1CCc2nn3c(c2C1)C(F)(F)CC[C@H](O)C3` [Example 5, (S)-N-(2-Bromo-3-fluoropyridin-4-yl)-11,11-difluoro-8-hydroxy-3,4,8,9,10,11-hexahydro-1H-pyrido[4′,3′:3,4]pyrazolo[1,5-a]azepine-2(7H)-carboxamide], 57 nM.
Consider `N#Cc1c(F)ccc(NC(=O)N2CCc3nn4c(c3C2)C(F)(F)CC[C@H](O)C4)c1F` [Example 6, (S)-N-(3-Cyano-2,4-difluorophenyl)-11,11-difluoro-8-hydroxy-3,4,8,9,10,11-hexahydro-1H-pyrido[4′,3′:3,4]pyrazolo[1,5-a]azepine-2(7H)-carboxamide], for which, under setting [1], the EC50 came to 44 nM.
With `O=C(Nc1ccc(F)c(Br)c1F)N1CCc2nn3c(c2C1)C(F)(F)CC[C@H](O)C3` [Example 7, (S)-N-(3-Bromo-2,4-difluorophenyl)-11,11-difluoro-8-hydroxy-3,4,8,9,10,11-hexahydro-1H-pyrido[4′,3′:3,4]pyrazolo[1,5-a]azepine-2(7H)-carboxamide], under setting [1], the EC50 was 31 nM.
The same measure, in the same setting: in the case of `N#Cc1cc(NC(=O)N2CCc3nn4c(c3C2)C(F)(F)CC[C@@H](O)C4)ccc1F` [Example 8, (R)-N-(3-Cyano-4-fluorophenyl)-11,11-difluoro-8-hydroxy-3,4,8,9,10,11-hexahydro-1H-pyrido[4′,3′:3,4]pyrazolo[1,5-a]azepine-2(7H)-carboxamide] it was 10 nM; in that of `O=C(Nc1ccc(F)c(C(F)(F)F)c1)N1CCc2nn3c(c2C1)C(F)(F)CC[C@@H](O)C3` [Example 9, (R)-11,11-Difluoro-N-(4-fluoro-3-(trifluoromethyl)phenyl)-8-hydroxy-3,4,8,9,10,11-hexahydro-1H-pyrido[4′,3′:3,4]pyrazolo[1,5-a]azepine-2(7H)-carboxamide], 28 nM; in that of `O=C(Nc1ccnc(Br)c1F)N1CCc2nn3c(c2C1)C(F)(F)CC[C@@H](O)C3` [Example 10, (R)-N-(2-Bromo-3-fluoropyridin-4-yl)-11,11-difluoro-8-hydroxy-3,4,8,9,10,11-hexahydro-1H-pyrido[4′,3′:3,4]pyrazolo[1,5-a]azepine-2(7H)-carboxamide], 32 nM.
The same measure, in the same setting: with `N#Cc1c(F)ccc(NC(=O)N2CCc3nn4c(c3C2)C(F)(F)CC[C@@H](O)C4)c1F` [Example 11, (R)-N-(3-Cyano-2,4-difluorophenyl)-11,11-difluoro-8-hydroxy-3,4,8,9,10,11-hexahydro-1H-pyrido[4′,3′:3,4]pyrazolo[1,5-a]azepine-2(7H)-carboxamide] the figure was 24 nM.
Still for that read-out and setting: with `O=C(Nc1ccc(F)c(Br)c1F)N1CCc2nn3c(c2C1)C(F)(F)CC[C@@H](O)C3` [Example 12, (R)-N-(3-Bromo-2,4-difluorophenyl)-11,11-difluoro-8-hydroxy-3,4,8,9,10,11-hexahydro-1H-pyrido[4′,3′:3,4]pyrazolo[1,5-a]azepine-2(7H)-carboxamide] the figure was 19 nM; with `N#Cc1cc(NC(=O)N2CCc3nn4c(c3C2)C(F)(F)CC[C@H](OCC(F)F)C4)ccc1F` [Example 13, (S)-N-(3-Cyano-4-fluorophenyl)-8-(2,2-difluoroethoxy)-11,11-difluoro-3,4,8,9,10,11-hexahydro-1H-pyrido[4′,3′:3,4]pyrazolo[1,5-a]azepine-2(7H)-carboxamide], 42 nM; with `N#Cc1cc(NC(=O)N2CCc3nn4c(c3C2)C(F)(F)CC[C@@H](OCC(F)F)C4)ccc1F` [Example 14, (R)-N-(3-Cyano-4-fluorophenyl)-8-(2,2-difluoroethoxy)-11,11-difluoro-3,4,8,9,10,11-hexahydro-1H-pyrido[4′,3′:3,4]pyrazolo[1,5-a]azepine-2(7H)-carboxamide], 51 nM.
In the case of `N#Cc1cc(NC(=O)N2CCc3nn4c(c3C2)C(F)(F)CCC(O)(CF)C4)ccc1F` (centres unmarked) [Example 37, N-(3-Cyano-4-fluorophenyl)-11,11-difluoro-8-(fluoromethyl)-8-hydroxy-3,4,8,9,10,11-hexahydro-1H-pyrido[4′,3′:3,4]pyrazolo[1,5-a]azepine-2(7H)-carboxamide], the EC50 under setting [1] was found to be 15 nM.
Still for that read-out and setting: with `N#CCC1(O)CCC(F)(F)c2c3c(nn2C1)CCN(C(=O)Nc1ccc(F)c(C#N)c1)C3` (centres unmarked) [Example 40, N-(3-Cyano-4-fluorophenyl)-8-(cyanomethyl)-11,11-difluoro-8-hydroxy-3,4,8,9,10,11-hexahydro-1H-pyrido[4′,3′:3,4]pyrazolo[1,5-a]azepine-2(7H)-carboxamide] the figure was 13 nM; with `N#Cc1cc(NC(=O)N2CCc3nn4c(c3C2)C(F)(F)CCC(F)(CO)C4)ccc1F` (centres unmarked) [Example 45, N-(3-Cyano-4-fluorophenyl)-8,11,11-trifluoro-8-(hydroxymethyl)-3,4,8,9,10,11-hexahydro-1H-pyrido[4′,3′:3,4]pyrazolo[1,5-a]azepine-2(7H)-carboxamide], 5 nM.
For `O=C(Nc1ccnc(Br)c1F)N1CCc2nn3c(c2C1)C(F)(F)CCC(F)(CO)C3` (centres unmarked) [Example 46, N-(2-Bromo-3-fluoropyridin-4-yl)-8,11,11-trifluoro-8-(hydroxymethyl)-3,4,8,9,10,11-hexahydro-1H-pyrido[4′,3′:3,4]pyrazolo[1,5-a]azepine-2(7H)-carboxamide], the half-maximal effective concentration (EC50) under setting [1] came out at 12 nM.
Still for that read-out and setting: in the case of `CC(=O)NCC1CCC(F)(F)c2c3c(nn2C1)CCN(C(=O)Nc1ccc(F)c(C#N)c1)C3` (centres unmarked) [Example 49] it was 33 nM; in that of `CC(=O)NCC1CCC(F)(F)c2c3c(nn2C1)CCN(C(=O)Nc1ccnc(Br)c1F)C3` (centres unmarked) [Example 50, 8-(Acetamidomethyl)-N-(2-bromo-3-fluoropyridin-4-yl)-11,11-difluoro-3,4,8,9,10,11-hexahydro-1H-pyrido[4′,3′:3,4]pyrazolo[1,5-a]azepine-2(7H)-carboxamide], 110 nM.
Regarding `N#Cc1cc(NC(=O)N2CCc3nn4c(c3C2)C(F)(F)CCC(CNC(=O)C(F)(F)F)C4)ccc1F` (centres unmarked) [Example 51, N-(3-Cyano-4-fluorophenyl)-11,11-difluoro-8-((2,2,2-trifluoroacetamido)methyl)-3,4,8,9,10,11-hexahydro-1H-pyrido[4′,3′:3,4]pyrazolo[1,5-a]azepine-2(7H)-carboxamide], the EC50 is 32 nM.
Still for that read-out and setting: in the case of `O=C(Nc1ccnc(Br)c1F)N1CCc2nn3c(c2C1)C(F)(F)CCC(CNC(=O)C(F)(F)F)C3` (centres unmarked) [Example 52, N-(2-Bromo-3-fluoropyridin-4-yl)-11,11-difluoro-8-((2,2,2-trifluoroacetamido)methyl)-3,4,8,9,10,11-hexahydro-1H-pyrido[4′,3′:3,4]pyrazolo[1,5-a]azepine-2(7H)-carboxamide] it was 102 nM.
Take `COC(=O)NCC1CCC(F)(F)c2c3c(nn2C1)CCN(C(=O)Nc1ccc(F)c(C#N)c1)C3` (centres unmarked) [Example 53, Methyl ((2-((3-cyano-4-fluorophenyl)carbamoyl)-11,11-difluoro-2,3,4,7,8,9,10,11-octahydro-1H-pyrido[4′,3′:3,4]pyrazolo[1,5-a]azepin-8-yl)methyl)-carbamate]: the EC50 under setting [1] worked out at 10 nM.
Same read-out and setting: in the case of `COC(=O)NCC1CCC(F)(F)c2c3c(nn2C1)CCN(C(=O)Nc1ccnc(Br)c1F)C3` (centres unmarked) [Example 54, Methyl ((2-((2-bromo-3-fluoropyridin-4-yl)carbamoyl)-11,11-difluoro-2,3,4,7,8,9,10,11-octahydro-1H-pyrido[4′,3′:3,4]pyrazolo[1,5-a]azepin-8-yl)methyl)-carbamate] it was 8 nM; in that of `C#CC1(O)CCC(F)(F)c2c3c(nn2C1)CCN(C(=O)Nc1ccc(F)c(C#N)c1)C3` (centres unmarked) [Example 58, N-(3-Cyano-4-fluorophenyl)-8-ethynyl-11,11-di fluoro-8-hydroxy-3,4,8,9,10,11-hexahydro-1H-pyrido[4′,3′:3,4]pyrazolo[1,5-a]azepine-2(7H)-carboxamide], 37 nM.
